The record followed here is patent publication US20210238184A1, “THERAPEUTIC COMPOUNDS” (Genentech, Inc., priority 2018, published 2021).

One test concerns the target TEAD2 YAP50-100 (Homo sapiens, UniProt Q15562). As to the kind of experiment: TEAD2:YAP50-100 protein-protein interaction HTRF (TR-FRET) assay. The settings on record: His-tagged TEAD YAP binding domain (aa 217-447), biotinylated YAP peptide aa 50-100; 30 min pre-incubation, 60 min at room temperature; read-out: TEAD2 YAP50-100 HTRF WuXi EC50. As for the experimental part: (§1) Purified His-tagged TEAD protein (YAP Binding Domain, amino acids 217-447) is pre-incubated with Europium labelled anti-His antibody tracer (Perkin Elmer Cat #AD0110). Small molecule Inhibitors are then incubated with the TEAD-Eu protein complex for 30 minutes to allow for binding to TEAD protein. Biotinylated YAP peptide (AA's 50-100) that has been pre-incubated with streptavidin x1665 acceptor (CIS-Bio Cat #610SAXAC) is added to the compound-TEAD mix. The TEAD-YAP-inhibitor mixture is then incubated for 60 minutes at room temperature. All reactions are carried out in a polystyrene plate. After 60 minutes, the plate is read on a plate reader using TR-FRET mode with wavelengths of 665 nm/615 nm. If YAP binds to TEAD as expected, a TR-FRET signal results from the proximity of YAP and TEAD after binding. If an inhibitor such as peptide 17 (Selleckchem Cat #S8164) interferes with YAP-TEAD binding, the disruption of the YAP:TEAD interaction results in a decrease in TR-FRET signal. The potency of compounds as YAP:TEAD protein-protein interaction (PPi) inhibitors is determined by an IC50 or EC50 value generated using a non-linear four parameter curve fit.
Background: TR-FRET usually uses a lanthanide donor and a delayed reading to cut background.

In another test the target is TEAD3 YAP50-100 (Homo sapiens, UniProt Q99594). As to the kind of experiment: TEAD3:YAP50-100 protein-protein interaction HTRF (TR-FRET) assay. The settings on record: His-tagged TEAD YAP binding domain (aa 217-447), biotinylated YAP peptide aa 50-100; 30 min pre-incubation, 60 min at room temperature; read-out: TEAD3 YAP50-100 HTRF WuXi EC50. As for the experimental part:
as §1

The structures appear in SMILES notation.

Chain of TEAD3 YAP50-100 (Q99594 216-435 limits assumed): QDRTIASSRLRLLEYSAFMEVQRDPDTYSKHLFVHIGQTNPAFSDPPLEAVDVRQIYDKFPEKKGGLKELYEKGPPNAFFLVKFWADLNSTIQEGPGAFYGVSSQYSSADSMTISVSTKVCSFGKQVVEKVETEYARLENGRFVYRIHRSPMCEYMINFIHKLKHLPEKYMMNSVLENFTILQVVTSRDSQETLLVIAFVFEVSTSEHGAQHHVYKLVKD
Chain of TEAD2 YAP50-100 (Q15562 217-447): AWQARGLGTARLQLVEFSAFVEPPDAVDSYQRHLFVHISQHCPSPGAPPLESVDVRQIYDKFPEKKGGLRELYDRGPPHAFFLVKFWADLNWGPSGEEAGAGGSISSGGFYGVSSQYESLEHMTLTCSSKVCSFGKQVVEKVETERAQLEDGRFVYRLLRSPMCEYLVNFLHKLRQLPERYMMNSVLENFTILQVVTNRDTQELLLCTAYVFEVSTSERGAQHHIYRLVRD

For orientation: EC50 means the midpoint of the concentration-response curve. Turning to `CCOC(=O)c1c(C(C)C)nn2c(=O)cc(-c3ccc(Oc4ccccc4)cc3)[nH]c12` [Example 29, Ethyl 2-isopropyl-7-oxo-5-(4-phenoxyphenyl)-4,7-dihydropyrazolo[1,5-a]pyrimidine-3-carboxylate], the EC50 is 249 nM on TEAD2 YAP50-100 and 124 nM on TEAD3 YAP50-100.

For `CCOC(=O)c1cnn2c(=O)cc(-c3ccc(C(C)(C)C)cc3)[nH]c12` [Example 30], the results for the EC50 at TEAD2 YAP50-100 and on TEAD3 YAP50-100 were 1620 nM and 95 nM, respectively.

For the compound `CCOC(=O)c1cnn2c(=O)cc(-c3ccc(OC(C)C)cc3)[nH]c12` [Example 31, Ethyl 5-(4-isopropoxyphenyl)-7-oxo-4,7-dihydropyrazolo[1,5-a]pyrimidine-3-carboxylate], the EC50 on TEAD2 YAP50-100 is 4040 nM; on TEAD3 YAP50-100 it was 944 nM.

For the compound `CCOC(=O)c1cnn2c(=O)cc(-c3ccc(N(C)CC4CC4)cc3)[nH]c12` [Example 32, Ethyl 5-(4-((cyclopropylmethyl)(methyl)amino)phenyl)-7-oxo-4,7-dihydro pyrazolo[1,5-a]pyrimidine-3-carboxylate], the figures for the EC50 at TEAD2 YAP50-100 and at TEAD3 YAP50-100 were 3700 nM and 175 nM, respectively.

With `CCOC(=O)c1cnn2c(=O)cc(-c3ccc(C4(c5ccccc5)CC4)cc3)[nH]c12` [Example 33, Ethyl 7-oxo-5-(4-(1-phenylcyclopropyl)phenyl)-4,7-dihydropyrazolo[1,5-a]pyrimidine-3-carboxylate], the EC50 on TEAD2 YAP50-100 amounted to 2190 nM; at TEAD3 YAP50-100 it was 765 nM.

`CCOC(=O)c1cnn2c(=O)cc(-c3ccc(-c4ccccc4)cc3)[nH]c12` [Example 34, Ethyl 5-([1,1^1-biphenyl]-4-yl)-7-oxo-4,7-dihydropyrazolo[1,5-a]pyrimidine-3-carboxylate]: the concentration giving a half-maximal response (EC50) at TEAD2 YAP50-100 came to 1030 nM; on TEAD3 YAP50-100 it was 41 nM.

On to `O=C(c1cnn2c(=O)cc(-c3ccc(-c4ccccc4)cc3)[nH]c12)N1CCC1` [Example 35, 5-([1,1′-Biphenyl]-4-yl)-3-(azetidine-1-carbonyl)pyrazolo[1,5-a]pyrimidin-7(4H)-one], for which the EC50 amounted to 1630 nM at TEAD2 YAP50-100 and 95 nM at TEAD3 YAP50-100.

For `CN(C)C(=O)c1cnn2c(=O)cc(-c3ccc(C4CCC4)cc3)[nH]c12` [Example 36, 5-(4-Cyclobutylphenyl)-N,N-dimethyl-7-oxo-4,7-dihydropyrazolo[1,5-a]pyrimidine-3-carboxamide], the concentration for a half-maximal effect (EC50) on TEAD2 YAP50-100 was 1870 nM; on TEAD3 YAP50-100 it was 28 nM.

On to `N#C[C@@H]1CCN(C(=O)c2cnn3c(=O)cc(-c4ccc(C5CCCCC5)cc4)[nH]c23)C1` [Example 37, (R)-1-(5-(4-Cyclohexylphenyl)-7-oxo-4,7-dihydropyrazolo[1,5-a]pyrimidine-3-carbonyl)pyrrolidine-3-carbonitrile], for which the 50% effective concentration (EC50) on TEAD2 YAP50-100 worked out at 8.79 nM; at TEAD3 YAP50-100 it was 52.2 nM.

As for `O=C(c1cnn2c(=O)cc(-c3ccc(C4CCCCC4)cc3)[nH]c12)N1CC(C(F)F)C1` [Example 38, 5-(4-Cyclohexylphenyl)-3-(3-(difluoromethyl)azetidine-1-carbonyl)pyrazolo[1,5-a]pyrimidin-7(4H)-one], the 50% effective concentration (EC50) at TEAD2 YAP50-100 was determined as 12 nM; on TEAD3 YAP50-100, 27 nM.

In the case of `O=C(c1cnn2c(=O)cc(-c3ccc(C4CCCCC4)cc3)[nH]c12)N1CC(C(F)(F)F)C1` [Example 39, 5-(4-Cyclohexylphenyl)-3-(3-(trifluoromethyl)azetidine-1-carbonyl)pyrazolo[1,5-a]pyrimidin-7(4H)-one], the figures for the EC50 at TEAD2 YAP50-100 and on TEAD3 YAP50-100 were 295 nM and 405 nM, respectively.

On to `CC1(F)CN(C(=O)c2cnn3c(=O)cc(-c4ccc(C5CCCCC5)cc4)[nH]c23)C1` [Example 40, 5-(4-Cyclohexylphenyl)-3-(3-fluoro-3-methylazetidine-1-carbonyl)pyrazolo[1,5-a]pyrimidin-7(4H)-one], for which the concentration for a half-maximal effect (EC50) on TEAD2 YAP50-100 came out at 12.5 nM; on TEAD3 YAP50-100 it was 18.5 nM.

For `O=C(c1cnn2c(=O)cc(-c3ccc(C4CCCCC4)cc3)[nH]c12)N1CC(CF)C1` [Example 41, 5-(4-Cyclohexylphenyl)-3-(3-(fluoromethyl)azetidine-1-carbonyl)pyrazolo[1,5-a]pyrimidin-7(4H)-one], the EC50 is 4.5 nM at TEAD2 YAP50-100 and 10 nM at TEAD3 YAP50-100.

Take `O=C(c1cnn2c(=O)cc(-c3ccc(C4CCCCC4)cc3)[nH]c12)N1CCC(F)(F)C1` [Example 42, 5-(4-Cyclohexylphenyl)-3-(3,3-difluoropyrrolidine-1-carbonyl)pyrazolo[1,5-a]pyrimidin-7(4H)-one]: the EC50 at TEAD2 YAP50-100 stood at 14.5 nM; at TEAD3 YAP50-100 it was 39.5 nM.

In the case of `O=C(c1cnn2c(=O)cc(-c3ccc(C4CCCCC4)cc3)[nH]c12)N1CC[C@@H]1CF` [Example 43, (R)-5-(4-cyclohexylphenyl)-3-(2-(fluoromethyl)azetidine-1-carbonyl)pyrazolo[1,5-a]pyrimidin-7(4H)-one], the EC50 at TEAD2 YAP50-100 amounted to 22.5 nM; on TEAD3 YAP50-100, 28 nM.

With `N#CC1CN(C(=O)c2cnn3c(=O)cc(-c4ccc(C5CCCCC5)cc4)[nH]c23)C1` [Example 44], the EC50 was 5.85 nM on TEAD2 YAP50-100 and 13 nM at TEAD3 YAP50-100.
